# Data from patent US20250163043A1 (TRANSTHERA SCIENCES (NANJING), INC., priority 2021, published 2025).
# pIC50: −log10 of the molar value.
# Legend:
# [1] = system: MV-4-11 (human myelomonocytic leukemia cells); experiment: CCK-8 cell proliferation assay, MV-4-11; type: cell-based; conditions: MV4-11, 24 h incubation, 11 concentrations from 5000 nM, 3-fold, read-out: MV-4-11 cell proliferation IC50 (class)
# Procedure: Test samples: the compounds of the present invention, having structures shown above.
# MV-4-11 (human myelomonocytic leukemia cells) and NCI-H929 (human myeloma cells).
# The compounds were dissolved in DMSO and diluted 3-fold in the 96-well plate to obtain stock solutions with 11 concentration gradients. Each cell was inoculated into a 96-well plate, and the diluted compound stock solution was added to the 96-well plate to obtain a series of 11 concentration gradients of compound solutions with final concentrations of 5000 nM starting and 3-fold gradient decreasing, wherein the final DMSO content was […]. There was a medium containing 1‰ DMSO in the negative control well. The treated cells were incubated at 37° C. with 5% CO2 and 95% humidity, wherein MV-4-11 were incubated for 24 h and NCI-H929 for 72 h. After incubation was completed, each well was added with 10 μL of CCK-8 reagent, incubated for 1-3 h at room temperature and placed in the microplate reader, and the absorbance was read at 450 nm.
# The inhibition rate was calculated according to the following formula: […]
# ODcmpd: compound absorbance; ODpositive: average value of the absorbance of positive control without compound; ODvehicle: average value of the absorbance of solvent vehicle control.
# IC50 values were fitted using GraphPad 7.0 based on inhibition rates of compounds at different concentrations.
# CDK9/CycT1 = CDK9/CycT1 (Homo sapiens, UniProt P50750); experiment: ADP-Glo kinase assay on CDK enzymatic activity, CDK9/CycT1; type: biochemical; conditions: 10 concentrations from 10 μM, 4-fold, 60 min room temperature
# Outline: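 Steps: compound (10 μM top, 4-fold series) plus kinase, 10 min RT; add substrate/ATP mix, 60 min RT; ADP-Glo reagent 40 min; detection reagent 40 min; read luminescence. Inhibition referenced to AZD4573 (1 μM) and DMSO vehicle; IC50 by nonlinear fit.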
# Sequence of CDK9/CycT1 (P50750 whole entry): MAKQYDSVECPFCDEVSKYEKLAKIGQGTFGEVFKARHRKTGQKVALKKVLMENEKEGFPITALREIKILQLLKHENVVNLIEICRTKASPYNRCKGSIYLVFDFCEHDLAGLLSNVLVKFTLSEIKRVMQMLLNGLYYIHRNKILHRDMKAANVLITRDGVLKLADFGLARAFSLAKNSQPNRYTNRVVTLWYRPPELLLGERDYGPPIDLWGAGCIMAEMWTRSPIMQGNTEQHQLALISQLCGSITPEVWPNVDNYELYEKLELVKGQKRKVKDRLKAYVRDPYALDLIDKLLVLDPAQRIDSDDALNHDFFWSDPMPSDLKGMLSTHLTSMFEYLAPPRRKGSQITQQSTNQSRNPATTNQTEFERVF
# Sequence of CDK9/CycT1 (O60563 whole entry partner): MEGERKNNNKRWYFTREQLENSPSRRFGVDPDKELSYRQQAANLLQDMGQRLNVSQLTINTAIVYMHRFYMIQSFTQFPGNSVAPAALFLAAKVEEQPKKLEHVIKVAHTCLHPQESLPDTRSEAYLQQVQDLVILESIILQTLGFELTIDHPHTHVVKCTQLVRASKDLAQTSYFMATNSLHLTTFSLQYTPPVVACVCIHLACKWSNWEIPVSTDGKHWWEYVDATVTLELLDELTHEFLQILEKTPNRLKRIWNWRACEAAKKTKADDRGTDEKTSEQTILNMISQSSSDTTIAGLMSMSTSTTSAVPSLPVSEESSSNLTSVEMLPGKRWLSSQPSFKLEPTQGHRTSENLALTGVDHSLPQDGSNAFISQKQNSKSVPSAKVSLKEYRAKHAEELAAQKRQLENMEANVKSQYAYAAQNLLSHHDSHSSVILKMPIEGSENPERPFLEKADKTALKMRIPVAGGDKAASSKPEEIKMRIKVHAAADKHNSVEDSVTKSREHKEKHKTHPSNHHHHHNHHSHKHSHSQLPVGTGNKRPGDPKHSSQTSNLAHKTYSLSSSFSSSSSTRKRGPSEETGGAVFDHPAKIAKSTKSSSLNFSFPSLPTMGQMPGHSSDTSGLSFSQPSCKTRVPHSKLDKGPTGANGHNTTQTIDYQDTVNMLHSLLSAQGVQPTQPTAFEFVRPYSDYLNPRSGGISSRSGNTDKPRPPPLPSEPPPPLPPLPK
Structure (SMILES),pIC50 [1],IC50 (CDK9/CycT1) [nM]
"CC(=O)N1CCC[C@H](C(=O)Nc2ncc3cc(C#N)nc(NC(C)C)c3n2)C1 [Compound 6, (S)-1-acetyl-N-(6-cyano-8-(isopropylamino)pyrido[3,4-d]pyrimidin-2-yl)piperidine-3-carboxamide]",< 6.00,
"CC(=O)N[C@@H]1CCC[C@H](C(=O)Nc2ncc3cc(C(F)F)nc(NC(C)C)c3n2)C1 [Compound 7, (1S,3R)-3-acetamido-N-(6-(difluoromethyl)-8-(isopropylamino)pyrido[3,4-d]pyrimidin-2-yl)cyclohexane-1-carboxamide]",< 6.00,44
"CC(=O)N[C@@H]1CCC[C@H](C(=O)Nc2ncc3cc(C)nc(NC(C)C)c3n2)C1 [Compound 8, (1S,3R)-3-acetamido-N-(8-(isopropylamino)-6-methylpyrido[3,4-d]pyrimidin-2-yl)cyclohexane-1-carboxamide]",< 6.00,
"CCc1cc2cnc(NC(=O)[C@H]3CCC[C@@H](NC(C)=O)C3)nc2c(NC(C)C)n1 [Compound 9, (1S,3R)-3-acetamido-N-(6-ethyl-8-(isopropylamino)pyrido[3,4-d]pyrimidin-2-yl)cyclohexane-1-carboxamide]",< 6.00,
"C=Cc1cc2cnc(NC(=O)[C@H]3CCC[C@@H](NC(C)=O)C3)nc2c(NC(C)C)n1 [Compound 10, (1S,3R)-3-acetamido-N-(8-(isopropylamino)-6-vinylpyrido[3,4-d]pyrimidin-2-yl)cyclohexane-1-carboxamide]",< 6.00,46
"CNc1cc2cnc(NC(=O)[C@H]3CCC[C@@H](NC(C)=O)C3)nc2c(NC(C)C)n1 [Compound 11, (1S,3R)-3-acetamido-N-(8-(isopropylamino)-6-(methylamino)pyrido[3,4-d]pyrimidin-2-yl)cyclohexane-1-carboxamide]",< 6.00,
"COc1cc2cnc(NC(=O)[C@H]3CCC[C@@H](NC(C)=O)C3)nc2c(NC(C)C)n1 [Compound 12, (1S,3R)-3-acetamido-N-(8-(isopropylamino)-6-methoxypyrido[3,4-d]pyrimidin-2-yl)cyclohexane-1-carboxamide]",< 6.00,
"CC(=O)N[C@@H]1CCC[C@H](C(=O)Nc2cc3c(N4CCOCC4)nc(C#N)cc3cn2)C1 [Compound 21, (1S,3R)-3-acetamido-N-(7-cyano-5-morpholino-2,6-naphthyridin-3-yl)cyclohexane-1-carboxamide]",< 6.00,
"CC(C)Nc1nc(C#N)cc2cnc(N[C@H]3CCC[C@@H](N)C3)cc12 [Compound 40, 7-(((1S,3R)-3-aminocyclohexyl)amino)-1-(isopropylamino)-2,6-naphthyridine-3-carbonitrile]",6.00 to 6.40,
"CC(C)Cc1nc(C#N)cc2cnc(N[C@H]3CCCNC3)cc12 [Compound 108, (S)-1-isobutyl-7-(piperidin-3-ylamino)-2,6-naphthyridine-3-carbonitrile]",6.00 to 6.40,
"CC(C)Nc1nc(C#N)cc2cnc(N[C@H]3CCNC3)nc12 [Compound 112, (S)-8-(isopropylamino)-2-(pyrrolidin-3-ylamino)pyrido[3,4-d]pyrimidine-6-carbonitrile]",6.00 to 6.40,17
"CC(C)Nc1nc(C#N)cc2cnc(N[C@@H]3CCNC3)nc12 [Compound 113, (R)-8-(isopropylamino)-2-(pyrrolidin-3-ylamino)pyrido[3,4-d]pyrimidine-6-carbonitrile]",6.00 to 6.40,9
"CC(C)Nc1nc(C#N)cc2cnc(N[C@@H]3CCCOC3)nc12 [Compound 117, (R)-8-(isopropylamino)-2-((tetrahydro-2H-pyran-3-yl)amino)pyrido[3,4-d]pyrimidine-6-carbonitrile]",< 6.00,6
"CC(C)Nc1nc(C#N)cc2cnc(N[C@H]3CCOC3)nc12 [Compound 118, (S)-8-(isopropylamino)-2-((tetrahydrofuran-3-yl)amino)pyrido[3,4-d]pyrimidine-6-carbonitrile]",< 6.00,12
"CC(C)Nc1nc(C#N)cc2cnc(N[C@@H]3CCOC3)nc12 [Compound 119, (R)-8-(isopropylamino)-2-((tetrahydrofuran-3-yl)amino)pyrido[3,4-d]pyrimidine-6-carbonitrile]",< 6.00,6
"CC(C)Nc1nc(C#N)cc2cnc(NC3CCCS(=O)(=O)C3)nc12 (stereo not shown) [Compound 121, 2-((1,1-dioxidotetrahydro-2H-thiopyran-3-yl)amino)-8-(isopropylamino)pyrido[3,4-d]pyrimidine-6-carbonitrile]",6.00 to 6.40,14

Structure (SMILES),pIC50 [1],IC50 (CDK9/CycT1) [nM]
"CC(C)Nc1nc(C#N)cc2cnc(N[C@H]3CC[C@@H](O)CC3)nc12 [Compound 125, 2-(((1s,4s)-4-hydroxycyclohexyl)amino)-8-(isopropylamino)pyrido[3,4-d]pyrimidine-6-carbonitrile]",< 6.00,9
"CC(C)Nc1nc(C#N)cc2cnc(NC3CNC3)nc12 [Compound 129, 2-(azetidin-3-ylamino)-8-(isopropylamino)pyrido[3,4-d]pyrimidine-6-carbonitrile]",< 6.00,7
"CC(C)Nc1nc(C#N)cc2cnc(N[C@@H]3CCCNCC3)nc12 [Compound 132, (R)-2-(azepan-4-ylamino)-8-(isopropylamino)pyrido[3,4-d]pyrimidine-6-carbonitrile]",6.00 to 6.40,12
"CC(C)Nc1nc(C#N)cc2cnc(N[C@H]3CC[C@@H](N)CC3)nc12 [Compound 137, 2-(((1s,4s)-4-aminocyclohexyl)amino)-8-(isopropylamino)pyrido[3,4-d]pyrimidine-6-carbonitrile]",< 6.00,10
"CC(C)Nc1nc(C#N)cc2cnc(N[C@@H]3C[C@H]4COC[C@@H](C3)N4)nc12 [Compound 139, 2-(((1R,5S,7r)-3-oxa-9-azabicyclo[3.3.1]nonan-7-yl)amino)-8-(isopropylamino)pyrido[3,4-d]pyrimidine-6-carbonitrile]",< 6.00,6
"CC(C)Nc1nc(C#N)cc2cnc(NC3CCCCC3O)cc12 (stereo not shown) [Compound 143, 7-((2-hydroxycyclohexyl)amino)-1-(isopropylamino)-2,6-naphthyridine-3-carbonitrile]",< 6.00,12
"CC(C)Nc1nc(C#N)cc2cnc(NC3CCCC3N)cc12 (stereo not shown) [Compound 146, 7-((2-aminocyclopentyl)amino)-1-(isopropylamino)-2,6-naphthyridine-3-carbonitrile]",< 6.00,9
"CC(C)Nc1nc(C#N)cc2cnc(N[C@H]3CCC[C@H]3N)cc12 [Compound 158, 7-(((1S,2R)-2-aminocyclopentyl)amino)-1-(isopropylamino)-2,6-naphthyridine-3-carbonitrile]",6.00 to 6.40,3
"CC(C)(C)Nc1nc(C#N)cc2cnc(NC(=O)[C@H]3CCCNC3)cc12 [Compound 177, (S)—N-(5-(tert-butylamino)-7-cyano-2,6-naphthyridin-3-yl)piperidine-3-carboxamide]",< 6.00,19
"CC(C)(C)Nc1nc(C#N)cc2cnc(NC(=O)[C@@H]3CCCNC3)cc12 [Compound 178, (R)—N-(5-(tert-butylamino)-7-cyano-2,6-naphthyridin-3-yl)piperidine-3-carboxamide]",6.00 to 6.40,7
"N#Cc1cc2cnc(N[C@H]3CCCNC3)cc2c(C2CC2)n1 [Compound 194, (S)-1-cyclopropyl-7-(piperidin-3-ylamino)-2,6-naphthyridine-3-carbonitrile]",< 6.00,15
"Cc1nc(C#N)cc2cnc(N[C@H]3CCCNC3)cc12 [Compound 196, (S)-1-methyl-7-(piperidin-3-ylamino)-2,6-naphthyridine-3-carbonitrile]",< 6.00,
"N#Cc1cc2cnc(N[C@H]3CCCNC3)cc2c(OC2CC2)n1 [Compound 197, (S)-1-cyclopropoxy-7-(piperidin-3-ylamino)-2,6-naphthyridine-3-carbonitrile]",< 6.00,14
"CCNc1nc(C#N)cc2cnc(N[C@H]3C[C@](C)(N)C3)cc12 [Compound 208, 7-(((1r,3r)-3-amino-3-methylcyclobutyl)amino)-1-(ethylamino)-2,6-naphthyridine-3-carbonitrile]",6.00 to 6.40,7
"C[C@]1(N)C[C@H](Nc2cc3c(NC4CC4)nc(C#N)cc3cn2)C1 [Compound 210, 7-((trans)-3-amino-3-methylcyclobutyl)amino-1-(cyclopropylamine)-2,6-naphthyridine-3-carbonitrile]",6.00 to 6.40,12
"CC(C)(C)Nc1nc(C(F)F)cc2cnc(N[C@H]3[C@@H]4CNC[C@@H]43)nc12 [Compound C4, N^2-((1R,5S,6s)-3-azabicyclo[3.1.0]hexan-6-yl)-N^8-(tert-butyl)-6-(difluoromethyl)pyrido[3,4-d]pyrimidine-2,8-diamine]",6.00 to 6.40,9
